Read-outs that look alike come from different tables or passages of the source.
Tests used:
[1] = system: rat; design: method as in Pedraza et al., 2009; settings: 10 mg/kg i.p., ref Pedraza et al., 2009; cited from earlier work
[2] = Metabolite formation kinetics in HLMs; format: in vitro ADME; settings: human liver microsomes
Experimental: Microsomal incubations were conducted as described above with modifications. […] The K m was calculated using nonlinear regression in Graphpad Prism. Due to the lack of authentic standard and relatively short rate of parent disappearance, the maximum formation velocity (V max) could not be determined for either metabolites.

[3] = NCS‐382–diclofenac interaction study (inhibition of NCS‐382 glucuronidation); settings: mouse
Experimental: In this study, mice (n = 3–4 per group) were assigned (balanced for weight and gender) to one of three treatments and collected at one of three time points (0.5, 1, or 2 h).

[4] = Excretion of NCS‐382 in urine and feces (metabolic cages); format: in vivo; settings: mouse, pooled urine of 3 mice
Experimental: To ensure sufficient volumes of urine could be collected in each of the 2 h time intervals (baseline, 0–2, 2–4, 4–6, 6–8 h), three mice were dosed simultaneously and their urine and feces pooled for analysis. The total dose in μg administered to the three animals was therefore used to calculate the percent of the dose excreted in the urine pooled from all three mice. Animals were allowed ad libitum access to food and water of which the intake of each was monitored.
Samples (3 μL) were injected onto a Kinetex PFP (50 × 2.1 mm, 1.7 μm particle size) UPLC column and eluted with a binary gradient consisting of water with 0.1% formic acid (mobile phase A) and methanol with 0.1% formic acid (mobile phase B). […] Eluent was directed to waste for the initial 0.4 min then to an ABI Sciex 6500 Qtrap tandem mass spectrometer. […] Where necessary, samples were diluted in blank matrices for analysis.
Pharmacokinetic outcomes were obtained via standard noncompartmental methods using Kinetica (version 5.1, Thermo Fisher Scientific, Waltham, MA). The maximum concentration (C max) was obtained directly from the concentration–time profiles. Area under the concentration–time curve (AUC) from time zero to the last collected time point was determined using the trapezoidal method with linear up/log down interpolation.

[5] = system: rat; design: method as in Colombo et al., 1999; settings: 400 mg/kg i.p., ref Colombo et al., 1999; cited from earlier work
[6] = system: aldh5a1^−/− mice; design: method as in Gupta et al. 2002; settings: ref Gupta et al. 2002; cited from earlier work
[7] = system: rat; design: method as in Schmidt-Mutter et al., 1998; settings: 300 mg/kg i.p., ref Schmidt-Mutter et al., 1998; cited from earlier work
[8] = Metabolite identification in samples from mouse pharmacokinetic studies (candidate metabolites); format: in vivo; settings: LC‐MS/MS of NCS‐382‐treated mouse samples
Experimental: Metabolite identification was conducted on samples obtained from pharmacokinetic studies in mice. Analytical conditions and equipment were similar to those described above with some modifications. Samples (10 μL) were injected onto a Kinetex PFP (50 × 2.1 mm, 1.7 μm particle size) UPLC column maintained at 40°C. […] MS experiments consisted of enhanced MS (EMS), neutral loss (NL), precursor ion scan (Prec), and MRM each followed by MS/MS experiments when necessary. Constant conditions such as a source temperature (450°C), signal threshold (500 cps), and CAD gas (“high”) were used, while additional parameters (e.g., collision energy, collision energy spread, mass range, etc.) were obtained by the software during data‐dependent scans. Studies were performed using sera and brain samples, with time points pooled for individual matrices and a reference control derived by pooling the sera or brain homogenates from three vehicle‐treated animals.
Using the Light Sight software, a comprehensive list of prospective phase I and phase II metabolites were targeted (Table S2). […] A number of structurally feasible metabolites (including oxidation) were initially identified, but could not be confirmed by their mass fragmentation patterns. […] Both peaks were detected in urine samples (Fig. S1B), but not in feces.

[9] = system: rat; design: method as in Poggioli et al., 1999; settings: rat, 25, 100, 200 mg/kg p.o.; ref Poggioli et al., 1999; cited from earlier work

## O=C(O)/C=C1\CCCc2ccccc2C1O (stereo not drawn) [NCS‐382, 6,7,8,9‐tetrahydro‐5‐hydroxy‐5H‐benzo‐cyclohept‐6‐ylideneacetic acid]
[1]
  neurological damage and working-memory impairment induced by low-dose GHB: NCS-382 prevents both neurological damage and working- memory impairment induced by low-dose GHB.
[2]; 120 min, read-out: Km for dehydrogenation
  Km: 12.7 ± 4.8 µM
[2]; saturation not obtained, read-out: Km for glucuronidation
  Km: > 100 µM
[3]; both, in vivo, 300 mg/kg
  AUC(0-t): 411 µM·h
[3]; treatment NCS‐382 300 mg/kg + Diclofenac 25 mg/kg
  Brain AUC0–2 h [90% CI]: 182 [164–200] ^a nmol/g/tissue*h
[3]; treatment NCS‐382 300 mg/kg alone
  Brain AUC0–2 h [90% CI]: 128 [115–141] nmol/g/tissue*h
[4]; 100 mg/kg
  total dose administered recovered unchanged in the urine over 8 h: 0.1%
[4]; 300 mg/kg
  total dose administered recovered unchanged in the urine over 8 h: 1.1%
[4]; 500 mg/kg
  total dose administered recovered unchanged in the urine over 8 h: 3.3%
[5]
  blood ethanol levels: NCS-382 reduces blood ethanol levels, likely due to a lessened absorption of ethanol from the gastrointestinal tract.
[6]
  lifespan of SSADHD mice: significant lifespan extension
[7]
  reversal of the anxiolytic effect of GHB: The anxiolytic effect of GHB were reversed by the benzodiazepine receptor antagonist, flumazenil, but not by naloxone or NCS-382.
[8]
  Peak Area (%): 25%
[9]
  gastric emptying: dose dependently, ↓ gastric emptying
  prokinetic effect of GHB: antagonized the prokinetic effect of GHB

Source: publication PMC5115179 (Pharmacology Research & Perspectives, 2016)
